According to paper PMC3624796 (Journal of Medicinal Chemistry, 2013):

Biological target: T1, T4 lysozyme L99A/M102H† (Enterobacteria phage T4, UniProt P00720, C54T/C97A/E108V/L99A/M102H/N144D/S117V/S38D/T142C/T21C)
Assay type: binding
Details: not given

Row | Structure (SMILES) | ΔGmelt (change of stability on ligand binding, ΔTm × ΔS) [kcal/mol]
1 | O=[N+]([O-])c1ccc(O)cc1 [4-nitrophenol] | 1.4
2 | N#Cc1cc(Br)ccc1O [5-bromo-2-hydroxybenzonitrile] | 0.6
3 | C=CSc1ccccc1 [phenyl vinyl sulfide] | 0.25

Biological target: T1, T4 lysozyme L99A/M102H†
Assay type: binding
Details: not given
Remark: another data set of the same source

Row | Structure (SMILES) | interaction with His102 stronger than with Gln102 (double perturbation analysis) [kcal/mol]
4 | O=[N+]([O-])c1ccc(O)cc1 [4-nitrophenol] | 2.4

Biological target: T1, T4 lysozyme L99A/M102H†
Assay type: binding
Details: crystal structure

Row | Structure (SMILES) | hydrogen bond distance between ligand and His102 [Å]
5 | C#CC(O)c1ccccc1 (stereo not drawn) [1-phenyl-2-propyn-1-ol, 1-phenyl-2-propyn-1-ol] | 2.77
6 | C=CCc1ccccc1O [2-allyl phenol] | 3.00
7 | Nc1ncc(Cl)s1 [2-amino-5-chloro thiazole] | 2.89
8 | O=Cc1cc(O)ccc1Br [2-bromo-5-hydroxybenzaldehyde] | 2.50
9 | Cc1cc(C(F)(F)F)n[nH]1 [3-methyl-5-(trifluoromethyl) pyrazole] | 2.90
10 | Brc1c[nH]cn1 [4-bromoimidazole] | 2.93
11 | FC(F)(F)c1c[nH]cn1 [4-trifluoromethyl imidazole] | 2.85

Test system: T4 lysozyme L99A
Details: cited from earlier work

Row | Structure (SMILES) | binding to L99A cavity
12 | Oc1ccccc1 [phenol] | does not measurably bind
